Results from patent US11370770B2, “3-arylindazoles as selective MEK4 inhibitors” (priority 2019, dated 2022).

Target: human MEK4 (Homo sapiens (Human), UniProt P45985)
Test: MEK4 ADP-Glo kinase activity assay (p38α substrate)
Format: biochemical
Conditions: SAR discussion of Table 1

human MEK4, sequence (P45985 whole entry): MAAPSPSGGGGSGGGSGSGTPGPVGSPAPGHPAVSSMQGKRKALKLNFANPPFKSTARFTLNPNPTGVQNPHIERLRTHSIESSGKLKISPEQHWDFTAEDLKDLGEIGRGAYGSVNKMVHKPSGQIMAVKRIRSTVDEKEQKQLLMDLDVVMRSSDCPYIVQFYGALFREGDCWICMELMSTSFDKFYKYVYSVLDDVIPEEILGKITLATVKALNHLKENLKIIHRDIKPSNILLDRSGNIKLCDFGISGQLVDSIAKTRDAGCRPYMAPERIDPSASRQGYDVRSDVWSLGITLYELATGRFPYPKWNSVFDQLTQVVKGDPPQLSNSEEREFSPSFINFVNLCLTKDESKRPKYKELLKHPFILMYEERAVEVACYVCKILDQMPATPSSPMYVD

MEK4 inhibition	SMILES
completely inactive	COC(=O)c1ccc(-c2n[nH]c3cc(C(F)(F)F)ccc23)cc1 [Compound 6y, methyl 4-[6-(trifluoromethyl)-2H-indazol-3-yl]benzoate]

Same assay, conditions: p38α substrate; value with 95% confidence interval in brackets; read-out: MEK4-p38, IC50, μM [95% Cl]

IC50 [µM]	SMILES
> 22	Clc1cccc2[nH]nc(-c3cccnc3)c12 [Compound 6e, 4-chloro-3-(pyridin-3-yl)-2H-indazole]
> 20	COC(=O)c1ccc(-c2n[nH]c3cc(C(F)(F)F)ccc23)cc1 [Compound 6y, methyl 4-[6-(trifluoromethyl)-2H-indazol-3-yl]benzoate]
> 22	CC(C)(O)c1cccc(-c2n[nH]c3cccc(Cl)c23)c1 [Compound 6g, 2-[3-(4-chloro-2H-indazol-3-yl)phenyl]propan-2-ol]
> 20	CC(C)(C)OC(=O)n1nc(-c2ccc(O)cc2)c2cc(C(F)(F)F)ccc21 [Compound 6k, tert-butyl 3-(4-hydroxyphenyl)-5-(trifluoromethyl)-1H-indazole-1-carboxylate]

Target: MEK6 (Homo sapiens (Human), UniProt P52564)
Sequence (P52564 whole entry): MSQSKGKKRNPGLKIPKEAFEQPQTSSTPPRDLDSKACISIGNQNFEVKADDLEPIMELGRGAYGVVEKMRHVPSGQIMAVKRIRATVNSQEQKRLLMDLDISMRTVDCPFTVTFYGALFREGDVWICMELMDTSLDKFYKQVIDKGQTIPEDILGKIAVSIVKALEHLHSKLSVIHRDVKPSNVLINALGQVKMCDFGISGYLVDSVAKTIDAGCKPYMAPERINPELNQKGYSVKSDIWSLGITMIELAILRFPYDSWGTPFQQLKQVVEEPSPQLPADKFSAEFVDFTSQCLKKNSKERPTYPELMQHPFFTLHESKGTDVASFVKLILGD
Test: MEK family profiling ADP-Glo, MEK6
Format: biochemical
Conditions: p38α substrate; 0.6 μM ATP; read-out: IC50 MEK isoform 6

SMILES	IC50 [µM]
Oc1ccc(-c2n[nH]c3ccc(C(F)(F)F)cc23)cc1 [Compound 6j, 4-[5-(trifluoromethyl)-2H-indazol-3-yl]phenol]	1.6
Cc1ccc2[nH]nc(-c3ccc(F)c(CO)c3)c2c1 [Compound 6o]	3.4
Cc1ccc2[nH]nc(-c3ccc(C(=O)O)cc3)c2c1 [Compound 6s, 4-(5-methyl-2H-indazol-3-yl)benzoic Acid]	8.7
Fc1ccc2c(-c3ccc4c(c3)OCO4)n[nH]c2c1 [Compound 6ee, 3-(2H-1,3-benzodioxol-5-yl)-6-fluoro-2H-indazole]	5.8
Cc1cccc2[nH]nc(-c3ccc(O)cc3)c12 [Compound 6b]	21
Cc1ccc2[nH]nc(-c3ccc(O)cc3)c2c1 [Compound 6q, 4-(5-methyl-2H-indazol-3-yl)phenol]	2.2
O=C(O)c1ccc(-c2n[nH]c3ccc(C(F)(F)F)cc23)cc1 [Compound 6n, 4-[5-(trifluoromethyl)-2H-indazol-3-yl]benzoic Acid]	6
Cc1ccc2[nH]nc(-c3ccc4c(c3)OCO4)c2c1 [Compound 6p, 3-(2H-1,3-benzodioxol-5-yl)-5-methyl-2H-indazole]	3.2
O=C(O)c1ccc(-c2n[nH]c3cc(C(F)(F)F)ccc23)cc1 [Compound 6z, 4-[6-(trifluoromethyl)-2H-indazol-3-yl]benzoic Acid]	8.8
Cc1ccc2[nH]nc(-c3ccc(C(N)=O)cc3)c2c1 [Compound 6r, 4-(5-methyl-2H-indazol-3-yl)benzamide]	2.1

Target: MEK3 (Homo sapiens (Human), UniProt P46734)
Sequence (P46734 whole entry): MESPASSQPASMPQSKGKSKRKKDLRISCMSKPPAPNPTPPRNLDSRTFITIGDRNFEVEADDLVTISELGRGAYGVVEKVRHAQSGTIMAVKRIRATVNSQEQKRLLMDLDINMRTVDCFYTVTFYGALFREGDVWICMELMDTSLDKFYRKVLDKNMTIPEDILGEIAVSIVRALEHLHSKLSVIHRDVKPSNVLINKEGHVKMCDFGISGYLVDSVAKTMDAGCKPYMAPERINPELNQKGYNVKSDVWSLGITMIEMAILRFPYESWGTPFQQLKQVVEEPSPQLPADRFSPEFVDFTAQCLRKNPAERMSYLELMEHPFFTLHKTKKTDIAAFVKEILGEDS
Test: MEK family profiling ADP-Glo, MEK3
Format: biochemical
Conditions: p38α substrate; 0.6 μM ATP; read-out: IC50 MEK isoform 3

SMILES	IC50 [µM]
Cc1ccc2[nH]nc(-c3ccc(F)c(CO)c3)c2c1 [Compound 6o]	6
Cc1ccc2[nH]nc(-c3ccc(C(=O)O)cc3)c2c1 [Compound 6s, 4-(5-methyl-2H-indazol-3-yl)benzoic Acid]	12
Fc1ccc2c(-c3ccc4c(c3)OCO4)n[nH]c2c1 [Compound 6ee, 3-(2H-1,3-benzodioxol-5-yl)-6-fluoro-2H-indazole]	21
Cc1cccc2[nH]nc(-c3ccc(O)cc3)c12 [Compound 6b]	> 27
O=C(O)c1ccc(-c2n[nH]c3ccc(C(F)(F)F)cc23)cc1 [Compound 6n, 4-[5-(trifluoromethyl)-2H-indazol-3-yl]benzoic Acid]	2.9
Cc1ccc2[nH]nc(-c3ccc4c(c3)OCO4)c2c1 [Compound 6p, 3-(2H-1,3-benzodioxol-5-yl)-5-methyl-2H-indazole]	8.5
O=C(O)c1ccc(-c2n[nH]c3cc(C(F)(F)F)ccc23)cc1 [Compound 6z, 4-[6-(trifluoromethyl)-2H-indazol-3-yl]benzoic Acid]	> 27
Cc1ccc2[nH]nc(-c3ccc(C(N)=O)cc3)c2c1 [Compound 6r, 4-(5-methyl-2H-indazol-3-yl)benzamide]	4.1

Target: MEK2 (Homo sapiens (Human), UniProt P36507)
Sequence (P36507 whole entry): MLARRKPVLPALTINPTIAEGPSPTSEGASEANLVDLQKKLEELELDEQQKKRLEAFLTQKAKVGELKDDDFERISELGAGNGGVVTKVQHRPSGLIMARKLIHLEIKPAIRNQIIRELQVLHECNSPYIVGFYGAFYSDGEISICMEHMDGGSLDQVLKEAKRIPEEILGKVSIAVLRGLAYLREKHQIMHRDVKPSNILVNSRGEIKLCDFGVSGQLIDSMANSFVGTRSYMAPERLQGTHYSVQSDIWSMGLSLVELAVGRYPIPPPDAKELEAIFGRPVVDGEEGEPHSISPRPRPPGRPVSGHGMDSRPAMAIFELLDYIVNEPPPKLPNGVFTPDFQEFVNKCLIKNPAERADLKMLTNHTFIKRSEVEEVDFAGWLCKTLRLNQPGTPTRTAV
Test: MEK family profiling ADP-Glo, MEK2
Format: biochemical
Conditions: Erk2 substrate; 0.6 μM ATP; read-out: IC50 MEK isoform 2

SMILES	IC50 [µM]
Oc1ccc(-c2n[nH]c3ccc(C(F)(F)F)cc23)cc1 [Compound 6j, 4-[5-(trifluoromethyl)-2H-indazol-3-yl]phenol]	5.3
Cc1ccc2[nH]nc(-c3ccc(F)c(CO)c3)c2c1 [Compound 6o]	5.4
Cc1ccc2[nH]nc(-c3ccc(C(=O)O)cc3)c2c1 [Compound 6s, 4-(5-methyl-2H-indazol-3-yl)benzoic Acid]	> 27
Fc1ccc2c(-c3ccc4c(c3)OCO4)n[nH]c2c1 [Compound 6ee, 3-(2H-1,3-benzodioxol-5-yl)-6-fluoro-2H-indazole]	9.3
Cc1cccc2[nH]nc(-c3ccc(O)cc3)c12 [Compound 6b]	15
Cc1ccc2[nH]nc(-c3ccc(O)cc3)c2c1 [Compound 6q, 4-(5-methyl-2H-indazol-3-yl)phenol]	7.2
O=C(O)c1ccc(-c2n[nH]c3ccc(C(F)(F)F)cc23)cc1 [Compound 6n, 4-[5-(trifluoromethyl)-2H-indazol-3-yl]benzoic Acid]	> 27
Cc1ccc2[nH]nc(-c3ccc4c(c3)OCO4)c2c1 [Compound 6p, 3-(2H-1,3-benzodioxol-5-yl)-5-methyl-2H-indazole]	9.1
O=C(O)c1ccc(-c2n[nH]c3cc(C(F)(F)F)ccc23)cc1 [Compound 6z, 4-[6-(trifluoromethyl)-2H-indazol-3-yl]benzoic Acid]	> 27
Cc1ccc2[nH]nc(-c3ccc(C(N)=O)cc3)c2c1 [Compound 6r, 4-(5-methyl-2H-indazol-3-yl)benzamide]	6.1

Target: MEK5 (Homo sapiens (Human), UniProt Q13163)
Sequence (Q13163 whole entry): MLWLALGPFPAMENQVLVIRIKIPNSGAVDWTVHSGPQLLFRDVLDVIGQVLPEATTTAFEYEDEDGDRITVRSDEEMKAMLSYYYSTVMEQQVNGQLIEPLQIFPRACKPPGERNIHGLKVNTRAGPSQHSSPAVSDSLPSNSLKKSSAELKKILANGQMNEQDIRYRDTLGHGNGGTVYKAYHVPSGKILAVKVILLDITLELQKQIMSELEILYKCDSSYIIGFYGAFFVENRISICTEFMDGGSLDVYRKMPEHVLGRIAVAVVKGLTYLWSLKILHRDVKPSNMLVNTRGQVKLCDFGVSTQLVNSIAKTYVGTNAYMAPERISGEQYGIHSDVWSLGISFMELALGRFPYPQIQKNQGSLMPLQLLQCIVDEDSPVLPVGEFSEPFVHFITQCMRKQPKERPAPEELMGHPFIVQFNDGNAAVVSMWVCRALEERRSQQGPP
Test: MEK family profiling ADP-Glo, MEK5
Format: biochemical
Conditions: Erk5 substrate; 0.6 μM ATP; read-out: IC50 MEK isoform 5

SMILES	IC50 [µM]
Oc1ccc(-c2n[nH]c3ccc(C(F)(F)F)cc23)cc1 [Compound 6j, 4-[5-(trifluoromethyl)-2H-indazol-3-yl]phenol]	> 27
Cc1ccc2[nH]nc(-c3ccc(F)c(CO)c3)c2c1 [Compound 6o]	> 27
Cc1ccc2[nH]nc(-c3ccc(C(=O)O)cc3)c2c1 [Compound 6s, 4-(5-methyl-2H-indazol-3-yl)benzoic Acid]	> 27
Fc1ccc2c(-c3ccc4c(c3)OCO4)n[nH]c2c1 [Compound 6ee, 3-(2H-1,3-benzodioxol-5-yl)-6-fluoro-2H-indazole]	> 27
Cc1cccc2[nH]nc(-c3ccc(O)cc3)c12 [Compound 6b]	> 27
Cc1ccc2[nH]nc(-c3ccc(O)cc3)c2c1 [Compound 6q, 4-(5-methyl-2H-indazol-3-yl)phenol]	25
O=C(O)c1ccc(-c2n[nH]c3ccc(C(F)(F)F)cc23)cc1 [Compound 6n, 4-[5-(trifluoromethyl)-2H-indazol-3-yl]benzoic Acid]	> 27
Cc1ccc2[nH]nc(-c3ccc4c(c3)OCO4)c2c1 [Compound 6p, 3-(2H-1,3-benzodioxol-5-yl)-5-methyl-2H-indazole]	16
O=C(O)c1ccc(-c2n[nH]c3cc(C(F)(F)F)ccc23)cc1 [Compound 6z, 4-[6-(trifluoromethyl)-2H-indazol-3-yl]benzoic Acid]	0.35
Cc1ccc2[nH]nc(-c3ccc(C(N)=O)cc3)c2c1 [Compound 6r, 4-(5-methyl-2H-indazol-3-yl)benzamide]	19

Target: MEK1 (Homo sapiens (Human), UniProt Q02750)
Sequence (Q02750 whole entry): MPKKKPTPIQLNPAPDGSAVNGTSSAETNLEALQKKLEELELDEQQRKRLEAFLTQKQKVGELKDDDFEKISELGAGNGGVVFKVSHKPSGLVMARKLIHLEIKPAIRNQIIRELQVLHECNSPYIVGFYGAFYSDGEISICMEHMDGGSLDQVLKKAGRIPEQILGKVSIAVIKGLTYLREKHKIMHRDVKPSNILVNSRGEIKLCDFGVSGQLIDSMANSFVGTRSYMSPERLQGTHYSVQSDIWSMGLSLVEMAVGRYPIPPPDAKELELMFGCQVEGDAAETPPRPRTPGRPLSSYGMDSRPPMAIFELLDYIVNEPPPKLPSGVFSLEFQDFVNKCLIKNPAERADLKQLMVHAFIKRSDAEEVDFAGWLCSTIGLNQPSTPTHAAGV
Test: MEK family profiling ADP-Glo, MEK1
Format: biochemical
Conditions: Erk2 substrate; 0.6 μM ATP; read-out: IC50 MEK isoform 1

SMILES	IC50 [µM]
Oc1ccc(-c2n[nH]c3ccc(C(F)(F)F)cc23)cc1 [Compound 6j, 4-[5-(trifluoromethyl)-2H-indazol-3-yl]phenol]	4.6
Cc1ccc2[nH]nc(-c3ccc(F)c(CO)c3)c2c1 [Compound 6o]	4
Cc1ccc2[nH]nc(-c3ccc(C(=O)O)cc3)c2c1 [Compound 6s, 4-(5-methyl-2H-indazol-3-yl)benzoic Acid]	17
Fc1ccc2c(-c3ccc4c(c3)OCO4)n[nH]c2c1 [Compound 6ee, 3-(2H-1,3-benzodioxol-5-yl)-6-fluoro-2H-indazole]	6.6
Cc1cccc2[nH]nc(-c3ccc(O)cc3)c12 [Compound 6b]	11
Cc1ccc2[nH]nc(-c3ccc(O)cc3)c2c1 [Compound 6q, 4-(5-methyl-2H-indazol-3-yl)phenol]	7.7
O=C(O)c1ccc(-c2n[nH]c3ccc(C(F)(F)F)cc23)cc1 [Compound 6n, 4-[5-(trifluoromethyl)-2H-indazol-3-yl]benzoic Acid]	10
Cc1ccc2[nH]nc(-c3ccc4c(c3)OCO4)c2c1 [Compound 6p, 3-(2H-1,3-benzodioxol-5-yl)-5-methyl-2H-indazole]	6.6
O=C(O)c1ccc(-c2n[nH]c3cc(C(F)(F)F)ccc23)cc1 [Compound 6z, 4-[6-(trifluoromethyl)-2H-indazol-3-yl]benzoic Acid]	17
Cc1ccc2[nH]nc(-c3ccc(C(N)=O)cc3)c2c1 [Compound 6r, 4-(5-methyl-2H-indazol-3-yl)benzamide]	3.9

Test system: PC3M cells
Test: Scratch wound assay
Format: cell-based
Conditions: 10 μM

SMILES	efficacy in wound scratch assay
Fc1ccc2c(-c3ccc4c(c3)OCO4)n[nH]c2c1 [Compound 6ee, 3-(2H-1,3-benzodioxol-5-yl)-6-fluoro-2H-indazole]	modest efficacy

Same assay, conditions: 25 μM

SMILES	efficacy in wound scratch assay
Fc1ccc2c(-c3ccc4c(c3)OCO4)n[nH]c2c1 [Compound 6ee, 3-(2H-1,3-benzodioxol-5-yl)-6-fluoro-2H-indazole]	performs better

Same assay, conditions: PC3M cells; 10 μM; wound gap 0 vs 20 hrs

SMILES	Percent Difference, DMSO vs. 10 uM inhibitor [%]
Fc1ccc2c(-c3ccc4c(c3)OCO4)n[nH]c2c1 [Compound 6ee, 3-(2H-1,3-benzodioxol-5-yl)-6-fluoro-2H-indazole]	14.93

Same assay, conditions: PC3M cells; 25 μM; wound gap 0 vs 20 hrs

SMILES	Percent Difference, DMSO vs. 25 uM inhibitor [%]
Fc1ccc2c(-c3ccc4c(c3)OCO4)n[nH]c2c1 [Compound 6ee, 3-(2H-1,3-benzodioxol-5-yl)-6-fluoro-2H-indazole]	32.15

Same assay, conditions: PC3M cells; genistein 10 μM; wound gap 0 vs 20 hrs

SMILES	Percent Difference, DMSO vs. Geni [%]
O=c1c(-c2ccc(O)cc2)coc2cc(O)cc(O)c12 [Geni, genistein, reference compound]	33.45
